According to patent US20180311217A1, “METHODS OF TREATMENT AND COMPOSITIONS WITH XANTHINE OXIDASE INHIBITORS” (Takeda Pharmaceuticals U.S.A., Inc., priority 2013, published 2018):
Marks after values point to notes of the source that are not given here.

Key:
[1] = system: hyperuricemic gout subjects with moderate to severe renal impairment; test: Example 1 study: subjects experiencing gout flares; type: in vivo, human
Description: All subjects received colchicine 0.6 mg every other day (QOD) from the initial screening visit through the Month 6 visit only. Alternatively, if colchicine was not tolerated by the subject, prednisone may have been provided at the investigator's discretion in accordance with the stated guidelines listed under Prohibited Concomitant Medications.
All subjects were instructed to take colchicine 0.6 mg QOD for prophylaxis. Colchicine began at the Screening Day −21 visit for all subjects. Subjects received colchicine 0.6 mg QOD through the Month 6 visit.
Subjects were assessed for gout flares from the time the ICF was signed and throughout the duration of the study. Subjects were instructed to call the Investigator as soon as they thought they were having a gout flare. The Gout Flare Assessment Worksheet was completed by the site personnel (ie, study coordinator, study nurse, or the investigator).
Subjects were instructed to report the following information: the onset and end date of the flare, the kind of prophylaxis medication they were taking at the time of the event, whether or not the attack required medication (including type) and dates of treatment, the location of the flare, signs and symptoms regarding the flare including the severity, subjects' pain intensity (pain in rest), and the assessment of current gout flare compared to all previous gout flares in any joints. In addition, the subjects were asked an exploratory question in nature: the subject was asked during their current gout attack to indicate the degree of which the subject's physical mobility had been limited (on a scale of 0-10). The investigator reviewed the information provided and assessed whether or not they believed the subject experienced a gout flare and/or documented an alternative etiology.
Summary statistics for the number and percentage of subjects experiencing a gout flare were summarized by treatment group within the following intervals: Day 1 to Month 2 (Day 1 to 60), Month 2 to 4 (Day 61 to 120), Month 4 to 6 (Day 121 to 180), Month 6 to 8 (Day 181 to 240), Month 8 to 10 (Day 241 to 300), Month 10 to 12 (>day 301, and overall Day 1 to Month 6, and Month 6 to Month 12. All gout flares with onset after Day 301 (including those reported <30 days since last dose) were included in the Month 10 to 12 interval.

[2] = system: hyperuricemic gout subjects with moderate to severe renal impairment; test: Example 1 study: serum creatinine (sCr); type: in vivo, human; settings: for mean sCr: no prior and/or current use ARB or ACEi; for changes in sCr: prior and/or current use of ACEi; for changes in sCr / changes in mean sCr levels: Months 6 and 12; for change in sCr over time compared with placebo: sCr 2.0 to <2.5 mg/dL at Baseline; for change in sCr over time compared to placebo: sUA of 9.0 to <10.0 mg/dL at Baseline
Description: Efficacy of febuxostat was assessed by measurement of serum creatinine (and calculation of eGFR), clinic systolic and diastolic BP, and sUA levels. Serum samples for the analysis of serum creatinine (and calculation of eGFR) were collected at the time points stipulated in Schedule of Study Procedures (Table 1.). The primary efficacy variable was the change from Baseline to Month 12 in sCr. Summary statistics were presented for Baseline, postbaseline, and change from Baseline by treatment group at each visit. The primary analysis was based on the analysis of covariance (ANCOVA) model for change from baseline to Month 12 for the primary efficacy variable. The model included treatment as a factor, and the baseline sCr and prior use of an ARB or an ACEi (subjects taking an ARB or an ACEi or not taking an ARB or an ACEi) as covariates.

For Cc1nc(-c2ccc(OCC(C)C)c(C#N)c2)sc1C(=O)O [Febuxostat, 2-[3-cyano-4-(2-methylpropoxy)phenyl]-4-methylthiazole-5-carboxylic acid], the “Percentage of Subjects With Gout Flares” value ([1]; 30 mg BID, 2 to ≤4 months) was “(10.7) %”, the “Percentage of Subjects With Gout Flares” value ([1]; 30 mg BID, 4 to ≤6 months) was “(14.3) %” and the “Percentage of Subjects With Gout Flares” value ([1]; 30 mg BID, 4 to ≤6 months, listed as febuxostat) was 14.3%. The “Percentage of Subjects With Gout Flares” value ([1]; 30 mg BID, 6 to ≤8 months (after prophylaxis ended)) was “(26.3) %”, the “Percentage of Subjects With Gout Flares” value ([1]; 30 mg BID, 6 to ≤8 months (after prophylaxis ended), listed as febuxostat) was 26.3% and the “Percentage of Subjects With Gout Flares” value ([1]; 30 mg BID, 8 to ≤10 months) was “(5.9) %”. The “Percentage of Subjects With Gout Flares” value ([1]; 30 mg BID, 10 to ≤12 months) was “(11.8) %”, the “Percentage of Subjects With Gout Flares” value ([1]; 30 mg BID, Day 1 to Month 6) was “(28.1)* %” and the “Percentage of Subjects With Gout Flares” value ([1]; 30 mg BID, Day 1 to Month 6, listed as febuxostat) was 28.1%. For the same compound, the “Percentage of Subjects With Gout Flares” value ([1]; 30 mg BID, Month 6 to Month 12) was “(31.6)* %”, the “Percentage of Subjects With Gout Flares” value ([1]; 30 mg BID, Month 6 to Month 12, listed as febuxostat) was 31.6% and the “Percentage of Subjects With Gout Flares” value ([1]; 30 mg BID, ≤2 months) was “(18.8)* %”. For the same compound, the “Increase of percentage of subjects with at least one gout flare, months 6 to ≤8 relative to months 4 through 6” value ([1]; 30 mg IR BID) was 84%, the “Increase of percentage of subjects with at least one gout flare, months 6 to ≤8 relative to months 4 through 6” value ([1]; 40/80 mg IR QD) was 279% and the “Percentage of Subjects With Gout Flares” value ([1]; 40/80 mg QD, 2 to ≤4 months) was “(27.6) %”. For the same compound, the “Percentage of Subjects With Gout Flares” value ([1]; 40/80 mg QD, 4 to ≤6 months) was “(17.9) %”, the “Percentage of Subjects With Gout Flares” value ([1]; 40/80 mg QD, 4 to ≤6 months, listed as febuxostat) was 17.9% and the “Percentage of Subjects With Gout Flares” value ([1]; 40/80 mg QD, 6 to ≤8 months (after prophylaxis ended)) was “(50.0) %”. The “Percentage of Subjects With Gout Flares” value ([1]; 40/80 mg QD, 6 to ≤8 months (after prophylaxis ended), listed as febuxostat) was 50.0%, the “Percentage of Subjects With Gout Flares” value ([1]; 40/80 mg QD, 8 to ≤10 months) was “(22.2) %” and the “Percentage of Subjects With Gout Flares” value ([1]; 40/80 mg QD, 10 to ≤12 months) was “(23.1) %”. The “Percentage of Subjects With Gout Flares” value ([1]; 40/80 mg QD, Day 1 to Month 6) was “(56.3) %”, the “Percentage of Subjects With Gout Flares” value ([1]; 40/80 mg QD, Day 1 to Month 6, listed as febuxostat) was 56.3% and the “Percentage of Subjects With Gout Flares” value ([1]; 40/80 mg QD, Month 6 to Month 12) was “(64.3) %”. The “Percentage of Subjects With Gout Flares” value ([1]; 40/80 mg QD, Month 6 to Month 12, listed as febuxostat) was 64.3%, the “Percentage of Subjects With Gout Flares” value ([1]; 40/80 mg QD, ≤2 months) was “(50.0) %” and the “renal function preservation compared with febuxostat 40/80 mg QD” value ([2]; 30 mg BID) was “better renal function preservation”. For the same compound, the “Serum Creatinine, Change from Baseline” value ([2]; 30 mg BID, Day 14) was 0.09 mg/dL, the “Serum Creatinine, Mean” value ([2]; 30 mg BID, Day 14) was 2.18 mg/dL and the “Serum Creatinine, Change from Baseline” value ([2]; 30 mg BID, Month 1) was 0.13 mg/dL. For the same compound, the “Serum Creatinine, Mean” value ([2]; 30 mg BID, Month 1) was 2.23 mg/dL, the “Serum Creatinine, Change from Baseline” value ([2]; 30 mg BID, Month 3) was 0.09 mg/dL and the “Serum Creatinine, Mean” value ([2]; 30 mg BID, Month 3) was 2.18 mg/dL. The “Serum Creatinine, Change from Baseline” value ([2]; 30 mg BID, Month 6) was 0.03 mg/dL, the “Serum Creatinine, Mean” value ([2]; 30 mg BID, Month 6) was 2.12 mg/dL and the “Serum creatinine change from Baseline, LS mean” value ([2]; 30 mg BID, Month 6) was 0.04 mg/dL. For the same compound, the “Serum creatinine change from Baseline, LS mean difference from placebo group” value ([2]; 30 mg BID, Month 6) was -0.11 mg/dL, the “Serum Creatinine, Change from Baseline” value ([2]; 30 mg BID, Month 9) was 0.11 mg/dL and the “Serum Creatinine, Mean” value ([2]; 30 mg BID, Month 9) was 2.21 mg/dL. For the same compound, the “Serum Creatinine, Change from Baseline” value ([2]; 30 mg BID, Month 12) was 0.04 mg/dL, the “Serum Creatinine, Mean” value ([2]; 30 mg BID, Month 12) was 2.13 mg/dL and the “Serum creatinine change from Baseline, LS mean” value ([2]; 30 mg BID, Month 12) was 0.09 mg/dL. The “Serum creatinine change from Baseline, LS mean difference from placebo group” value ([2]; 30 mg BID, Month 12) was -0.10 mg/dL, the “mean sCr” value ([2]; 30 mg BID) was “increased” and the “changes in sCr” value ([2]; 30 mg BID) was “slight improvements”. For the same compound, the “changes in mean sCr levels” value ([2]; 30 mg BID, prior and/or current use of ARB) was “minimal changes or a slight improvement”, the “change in sCr over time compared with placebo” value ([2]; 30 mg BID) was “small favorable trend” and the “change in sCr over time compared to placebo” value ([2]; 30 mg BID) was “small favorable trend”. The “changes in mean sCr levels” value ([2]; 30 mg BID, subjects with moderate renal impairment) was “minimal changes”, the “Serum Creatinine, Change from Baseline” value ([2]; 40/80 mg QD, Day 14) was 0.08 mg/dL and the “Serum Creatinine, Mean” value ([2]; 40/80 mg QD, Day 14) was 2.30 mg/dL. The “Serum Creatinine, Change from Baseline” value ([2]; 40/80 mg QD, Month 1) was 0.05 mg/dL, the “Serum Creatinine, Mean” value ([2]; 40/80 mg QD, Month 1) was 2.25 mg/dL and the “Serum Creatinine, Change from Baseline” value ([2]; 40/80 mg QD, Month 3) was 0.04 mg/dL. For the same compound, the “Serum Creatinine, Mean” value ([2]; 40/80 mg QD, Month 3) was 2.24 mg/dL, the “Serum Creatinine, Change from Baseline” value ([2]; 40/80 mg QD, Month 6) was 0.06 mg/dL and the “Serum Creatinine, Mean” value ([2]; 40/80 mg QD, Month 6) was 2.26 mg/dL. The “Serum creatinine change from Baseline, LS mean” value ([2]; 40/80 mg QD, Month 6) was 0.07 mg/dL, the “Serum creatinine change from Baseline, LS mean difference from placebo group” value ([2]; 40/80 mg QD, Month 6) was -0.08 mg/dL and the “Serum Creatinine, Change from Baseline” value ([2]; 40/80 mg QD, Month 9) was 0.01 mg/dL. The “Serum Creatinine, Mean” value ([2]; 40/80 mg QD, Month 9) was 2.22 mg/dL, the “Serum Creatinine, Change from Baseline” value ([2]; 40/80 mg QD, Month 12) was 0.19 mg/dL and the “Serum Creatinine, Mean” value ([2]; 40/80 mg QD, Month 12) was 2.40 mg/dL. The “Serum creatinine change from Baseline, LS mean” value ([2]; 40/80 mg QD, Month 12) was 0.23 mg/dL, the “Serum creatinine change from Baseline, LS mean difference from placebo group” value ([2]; 40/80 mg QD, Month 12) was 0.04 mg/dL and the “mean sCr” value ([2]; 40/80 mg QD) was “increased”. For the same compound, the “changes in sCr” value ([2]; 40/80 mg QD) was “minimal changes”, the “change in sCr over time compared with placebo” value ([2]; 40/80 mg QD) was “small favorable trend” and the “change in sCr over time compared to placebo” value ([2]; 40/80 mg QD) was “small favorable trend”. For the same compound, the “changes in mean sCr levels” value ([2]; 40/80 mg, prior and/or current use of ARB) was “minimal changes or a slight improvement” and the “changes in mean sCr levels” value ([2]; 40/80 mg, subjects with moderate renal impairment) was “small increases”.
